Measured values published in article PMC6508677, “Identification of druggable small molecule antagonists of the Plasmodium falciparum hexose transporter PfHT and assessment of ligand access to the glucose permeation pathway via FLAG-mediated protein engineering” (PLoS ONE, 2019).
“And” between values parts separate entries of the source, which are not always exact repeats. Identical values can stand only once.

Target: T1, hGLUT2 (Homo sapiens, UniProt P11168)
T1 construct: expressed in transfected cells; host or cells: HEK293 (HEK293-FLIP, native hGLUT1 knocked down by shRNA)
T1 sequence (P11168 1-524): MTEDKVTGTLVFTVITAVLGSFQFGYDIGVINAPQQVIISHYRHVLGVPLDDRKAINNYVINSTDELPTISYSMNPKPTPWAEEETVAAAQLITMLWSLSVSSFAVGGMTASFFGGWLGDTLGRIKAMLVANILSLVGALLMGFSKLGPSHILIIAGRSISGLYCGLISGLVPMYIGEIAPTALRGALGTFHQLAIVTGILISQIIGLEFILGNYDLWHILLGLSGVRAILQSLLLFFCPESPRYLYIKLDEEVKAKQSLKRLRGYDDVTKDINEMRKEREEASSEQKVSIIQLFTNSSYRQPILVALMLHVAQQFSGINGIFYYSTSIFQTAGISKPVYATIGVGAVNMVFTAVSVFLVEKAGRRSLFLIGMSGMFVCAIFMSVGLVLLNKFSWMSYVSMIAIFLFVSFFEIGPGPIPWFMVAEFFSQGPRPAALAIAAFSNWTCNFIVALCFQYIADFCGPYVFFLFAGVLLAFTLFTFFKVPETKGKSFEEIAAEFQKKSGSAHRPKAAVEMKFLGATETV
Experiment: 2-DG uptake by HEK293 cells overexpressing hGLUT2
Assay type: cell-based
Conditions: for remaining activity at 0.001 µM: 0.001 µM compound; for remaining activity at 1.25 µM: 1.25 µM compound; for remaining activity at 5 µM / inhibition at 5 µM: 5 μM compound; for remaining activity at 80 µM: 80 µM compound; for remaining activity at 160 µM: 160 µM compound; for IC50: IC50 for inhibition of 2-DG uptake
Excerpt: Generation of HEK293 cells overexpressing PfHT and human GLUTs 1–4 were described elsewhere. Briefly, HEK293 cells were transfected with pcDNA3.1 FLII12Pglu-7006 (Addgene), containing the fluorescence resonance energy transfer (FRET) glucose sensor (HEK293-FLIP) and PfHT, human GLUT1 (hGLUT1), hGLUT2, hGLUT3, hGLUT4, hGLUT5 or hGLUT8 using Optifect (Life Technologies) according to manufacturer’s specifications. To increase retention of GLUT8 at the plasma membrane, the dileucine sorting signal E^7E^8XXXLL was modified to R^7R^8XXXLL as described in [17]. Stable transfectants were selected for G418 and hygromycin resistance to select for FRET sensor and hexose transporter, respectively. HEK293-FLIP cells were also used to generate cells stably transfected with FLAG-tagged PfHT (FTPfHT). FLAG tag ([…]) followed by a triple glycine linker and a tobacco etch virus (TEV) protease site (ENLYFQS) followed by a triple glycine linker was added to the N-terminus of PfHT via PCR [18] using Phusion Hot Start II High-Fidelity DNA Polymerase (Fisher Scientific). Single clones were selected by comparing their abilities to transport glucose as assayed via FRET and radiolabeled hexose uptake. In all cell lines, except for HEK293 cells overexpressing hGLUT1 and hGLUT5, native hGLUT1 was knocked down using shRNA as described elsewhere. Transcript levels of the individual GLUTs expressed in each cell line are as described in [13, 15] and in S1 Fig.
Glucose uptake by P. falciparum was performed essentially as described. P. falciparum strain 3D7 was cultured in 100 mm tissue culture dishes (Techno Plastic Products) in a 2% suspension of human erythrocytes and RPMI 1640 medium until reaching > 7.5% parasitemia. Cells were pelleted via centrifugation and resuspended in RPMI 1640 medium. To determine the uptake of radiolabeled glucose into the parasite, parasites were isolated from infected erythrocytes by permeablization with saponin (0.05 w/v), followed by centrifugation, aspiration of supernatant and washing of the pellet 3X with saline solution (135 mM NaCl, 2 mM KCl, 25 mM HEPES, 0.2 mM glucose and 1 mM MgCl2; pH 7.1) to remove cellular debris. WU-1 or DMSO vehicle were added to 100 μl parasites (resuspended in saline) 5 min prior to the addition of 100 μl [^14C]2-DOG (0.2- μCi/ml final concentration). 2-DG uptake was stopped after 2 min by layering the entire reaction over 300 μl of an oil mixture (5:4 mix of dibutyl phthalate / dinonyl phthalate) in Eppendorf tubes and centrifuged at 15,850 × g for 2 mins. The ratio of the estimated intracellular concentration of radiolabel relative to the extracellular concentration were calculated as described. Uptake of radiolabeled hexose into HEK293 cells was measured in glucose-free HBSS as described previously. Briefly, cells were plated at 400,000 cells/well overnight at 37°C in 24-well plates pre-treated with PEI. After 30-min incubation at 37°C in glucose-free HBSS in the presence of vehicle or increasing concentrations of compound, 2-DG uptake was measured in glucose-free HBSS for 4 min at 37°C. Cultures were washed in ice-cold 1X PBS and lysed in 0.1% Triton X-100 in 1X PBS. Radiolabeled hexose uptake was determined by liquid scintillation counting (Ultima Gold, Thermo Fisher) and normalized to total protein per well. Uptake data are plotted as percent uptake relative to vehicle-treated cells. Kinetic analyses were performed using the indicated concentrations of substrate and WU-1, with quenching of uptake after 1 min incubation. Incubation times had been previously determined as being in the linear range of time-dependent radiolabeled hexose uptake (2 min for 2-DG uptake into freed parasites; 2 and 4 min for D-Frc and 2-DG uptake HEK cell lines, respectively). Data were fit by least squares nonlinear regression analysis using GraphPad Prism 6.0 software.

[1] = HEK293, 4 min, GLUT2, read-out: 2-DG uptake (percent uptake relative to vehicle), AVE per experiment
[2] = HEK293, 4 min, GLUT2, 2.5 µM compound, read-out: 2-DG uptake (percent uptake relative to vehicle), AVE per experiment
[3] = HEK293, 4 min, GLUT2, read-out: % Inhibition of 2-DG uptake vs vehicle
[4] = GLUT2 cell line, mean/reported value
[5] = individual experiments, GLUT2, Expt 1-3

| Compound | IC50 for inhibition of 2-DG uptake, individual experiments (GLUT2, Expt 1-3) | remaining activity at 0.001 µM [1] [%] | remaining activity at 1.25 µM [1] [%] | remaining activity at 2.5 µM [2] [%] | remaining activity at 5 µM [1] [%] | inhibition at 5 µM [3] [%] | remaining activity at 80 µM [1] [%] | remaining activity at 160 µM [1] [%] | IC50 [4] [µM] | IC50 [5] | Maximum Inhibition (%) (2-DG uptake, GLUT2 cell line) | remaining activity at 10 µM (HEK293, 4 min, GLUT2, 10 µM compound, read-out: 2-DG uptake (percent uptake relative to vehicle), AVE per experiment) [%] | remaining activity at 20 µM (HEK293, 4 min, GLUT2, 20 µM compound, read-out: 2-DG uptake (percent uptake relative to vehicle), AVE per experiment) [%] | remaining activity at 40 µM (HEK293, 4 min, GLUT2, 40 µM compound, read-out: 2-DG uptake (percent uptake relative to vehicle), AVE per experiment) [%] | remaining activity at 225 µM (HEK293, 4 min, GLUT2, 225 µM compound, read-out: 2-DG uptake (percent uptake relative to vehicle), AVE per experiment) [%] | inhibition at 2.5 µM (HEK293, 4 min, GLUT2, 2.5 µM compound, read-out: % Inhibition of 2-DG uptake vs vehicle) [%] |
| --- | --- | --- | --- | --- | --- | --- | --- | --- | --- | --- | --- | --- | --- | --- | --- | --- |
| Cc1ccc(S(=O)(=O)CCNC(=O)c2c(-c3c(Cl)cccc3Cl)noc2C)cc1 [WU-1, 3-(2,6-dichlorophenyl)-5-methyl-N-[2-(4-methylbenzenesulfonyl)ethyl]-1,2-oxazole-4-carboxamide] | ambiguous | 100 | 108 | 110 | 83 | ~10 | 73.8 | 54.5 | > 50 | 52.4 µM |  |  |  |  |  |  |
| COc1c(Br)cc([N+](=O)[O-])c(OC)c1C(=O)NC(=O)Nc1c(C)cccc1Cl [WU-2, 3-(3-bromo-2,6-dimethoxy-5-nitrobenzoyl)-1-(2-chloro-6-methylphenyl)urea] |  | 100 | 102 | 83.6 | 74.5 | 10 to 12 | 35.2 | 42.1 | 15.9 ± 2.5 | 14.1 µM and 20.8 µM and 12.9 µM | 62.0 | 62.8 | 64 | 39.5 | 30.9 |  |
| COc1cc(/C=C2\COC/C(=C\c3cc(OC)c(OC)c(OC)c3)C2=O)cc(OC)c1OC [WU-5, (3E,5E)-3,5-bis[(3,4,5-trimethoxyphenyl)methylidene]oxan-4-one] |  |  |  |  |  |  |  |  |  |  |  |  |  |  |  | ~70 |
